Data as given in patent US9884806B2, “Cyclic vinylogous amides as bromodomain inhibitors” (ICAHN SCHOOL OF MEDICINE AT MOUNT SINAI, priority 2013, dated 2018).

Legend:
BRD4_2 = biological target: T1, BRD4_2 (Homo sapiens, UniProt O60885); experiment: Fluorescence anisotropy binding assay (competition with FITC-labeled MS417 probe), BRD4_2; conditions: FITC-MS417 probe 80 nM, PBS pH 7.4, 1 hour, 25° C.
T1 construct: contains two tandem bromodomains (BrD1 and BrD2)

[1] = biological target: T2, first bromodomain (BrD1) of human BRD4 (Homo sapiens, UniProt O60885); experiment: Fluorescence anisotropy binding assay (competition with FITC-labeled MS417 probe); conditions: FITC-MS417 probe 80 nM, PBS pH 7.4, 1 hour, 25° C., read-out: BRD4_1 IC50
T2 construct: the first bromodomain (BrD1) of human BRD4; poly-His (cleaved yes); made in house
Protocol: Fluorescence Anisotropy Binding Assay
Expression and purification of the first bromodomain (BrD1) of human BRD4 in poly-His tag form was performed using a procedure described in the literature [See Zeng et al. Structure 16, 643-652 (2008) and Zhang et al., J Biol Chem 287, 28840-28851 (2012).] The protein was purified by using affinity chromatography on a nickel-IDA column (Invitrogen), followed by the removal of poly-His tag by thrombin cleavage.
Binding affinity of the newly synthesized compounds to the BRD4 BrD1 was assessed in a fluorescence anisotropy assay using a fluorescein isothiocyanate (FITC)-labeled MS417 as an assay probe (Zhang et al. 2008 op.cit.). Competition binding was performed with a BrD protein (0.25 to 1 μM) and the fluorescent probe (80 nM), and increasing concentration of unlabeled competing ligand in a PBS buffer (pH 7.4) in total volume of 80 μL. Measurements were obtained after 1 hour incubation of the fluorescent ligand and the protein at 25° C. with Safire 2 microplate reader (Tecan). In the assay, fluorescent ligand concentration was ≦2Kd, and protein concentration was set at which 50-80% of fluorescent ligand is bound. Dissociation constant of a competing ligand was calculated with the correction to Cheng-Prussoff equation introduced by Nicolovska-Coleska and colleagues [Nikolovska-Coleska, Z. et al., Anal Biochem 332, 261-273 (2004). Assuming one-site competitive binding model, the equation used to calculate Ki's from IC50 values recovered from fitting data using Prism:
[formula] where [I50] is the concentration of free inhibitor at 50% inhibition, [L50], the concentration of free labeled ligand at 50% inhibition, and [P0], concentration of free protein at 0% inhibition. Note that Kd for each protein-probe pair is the limit of resolvable Ki in a competition assay.

With CC1=C(Nc2cccc(NC(=O)c3ccccc3C)c2Cl)CCCC1=O [Example 05-50, N-(2-chloro-3-((2-methyl-3-oxocyclohex-1-en-1-yl)amino)phenyl)-2-methylbenzamide] the IC50 (BRD4_2) was over 10 µM and the IC50 [1] was 1 to 10 µM.
For CC1=C(Nc2ccc(C(=O)Nc3ccccc3C)cc2C)CCC1=O [Example 04-84, 3-methyl-4-((2-methyl-3-oxocyclopent-1-en-1-yl)amino)-N-(o-tolyl)benzamide], the IC50 (BRD4_2) was 1 to 10 µM and the IC50 [1] was 1 to 10 µM.
Work on COc1ccc(NC(=O)c2ccc(NC3=C(C)C(=O)CC3)cc2OC)cc1 [Example 04-71, 2-methoxy-N-(4-methoxyphenyl)-4-((2-methyl-3-oxocyclopent-1-en-1-yl)amino)-benzamide] yielded an IC50 (BRD4_2) of 1 to 10 µM and an IC50 [1] of 1 to 10 µM.
Molecule CC1=C(Nc2ccc(C(=O)Nc3cccc4ccccc34)cc2)CCC1=O [Example 03-16, 4-((2-methyl-3-oxocyclopent-1-en-1-yl)amino)-N-(naphthalen-1-yl)benzamide] has an IC50 (BRD4_2) of 1 to 10 µM and an IC50 [1] of 1 to 10 µM.
CC1=C(Nc2cc(NS(=O)(=O)c3ccccc3Cl)ccc2Cl)CCC1=O [Example 05-56, N-(4-chloro-3-((2-methyl-3-oxocyclopent-1-en-1-yl)amino)-phenyl)-2-chlorobenzenesulfonamide] was tested, and the IC50 (BRD4_2) was under 1 µM and the IC50 [1] was under 1 µM.
CC1=C(N[C@H]2CC[C@H](C(=O)O)CC2)CCC1=O [Example 01-33, trans-(1R,4R)-4-((2-methyl-3-oxocyclopent-1-en-1-yl)amino)cyclo6hexane-carboxylic acid] showed an IC50 (BRD4_2) of over 10 µM and an IC50 [1] of over 10 µM.
In the case of CC1=C(Nc2ccc(N)cc2Cl)CCC1=O [Example 02-14, 3-((4-amino-2-chlorophenyl)amino)-2-methylcyclopent-2-enone], the IC50 (BRD4_2) is reported as 1 to 10 µM and the IC50 [1] is reported as 1 to 10 µM.
Molecule CC1=C(Nc2cccc(C(=O)Nc3ccncc3)c2)CCC1=O [Example 04-3] has an IC50 (BRD4_2) of over 10 µM and an IC50 [1] of 1 to 10 µM.
For CC1=C(Nc2ccc(C(=O)O)cc2Br)CCC1=O [Examples 02-7], the IC50 (BRD4_2) was over 10 µM and the IC50 [1] was 1 to 10 µM.
For COc1ccccc1NC(=O)c1ccc(NC2=C(C)C(=O)CC2)c(OC)c1 [Example 04-57, 3-methoxy-N-(2-methoxyphenyl)-4-((2-methyl-3-oxocyclopent-1-en-1-yl)amino)-benzamide], the IC50 (BRD4_2) was 1 to 10 µM and the IC50 [1] was 1 to 10 µM.
CC1=C(NC2CCN(C(=O)OC(C)(C)C)CC2)CCC1=O [Example 01-32, tert-Butyl 4-((2-methyl-3-oxocyclopent-1-en-1-yl)amino)piperidine-1-carboxylate] showed an IC50 (BRD4_2) of over 10 µM and an IC50 [1] of over 10 µM.
For COC(=O)c1cccc(NC2=C(C)C(=O)CC2)c1 [Example 01-4], the IC50 (BRD4_2) was over 10 µM and the IC50 [1] was 1 to 10 µM.
In the case of CC1=C(Nc2ccc(C(=O)O)cc2)CCC1=O [Examples 02-1], the IC50 (BRD4_2) is reported as over 10 µM and the IC50 [1] is reported as 1 to 10 µM.
For COC(=O)c1ccc(C)c(NC(=O)c2ccc(Cl)c(NC3=C(C)C(=O)CCC3)c2)c1 [Example 04-93, methyl 3-(4-chloro-3-((2-methyl-3-oxocyclohex-1-en-1-yl)amino)benzamido)-4-methylbenzoate], the IC50 (BRD4_2) was 1 to 10 µM and the IC50 [1] was 1 to 10 µM.
COc1cc(C(=O)NC2CCCCC2)ccc1NC1=C(C)C(=O)CC1 [Example 04-54, N-cyclohexyl-3-methoxy-4-((2-methyl-3-oxocyclopent-1-en-1-yl)amino)-benzamide] showed an IC50 (BRD4_2) of 1 to 10 µM and an IC50 [1] of 1 to 10 µM.
With COc1cccc(NC(=O)c2ccc(NC3=C(C)C(=O)CC3)cc2OC)c1 [Example 04-70, 2-methoxy-N-(3-methoxyphenyl)-4-((2-methyl-3-oxocyclopent-1-en-1-yl)amino)-benzamide] the IC50 (BRD4_2) was 1 to 10 µM and the IC50 [1] was 1 to 10 µM.
Molecule COc1cc(NC2=C(C)C(=O)CC2)ccc1C(=O)NC1CCCCC1 [Example 04-66, N-cyclohexyl-2-methoxy-4-((2-methyl-3-oxocyclopent-1-en-1-yl)amino)-benzamide] has an IC50 (BRD4_2) of 1 to 10 µM and an IC50 [1] of 1 to 10 µM.
Work on CC1=C(Nc2cccc(C(=O)O)c2)CCC1=O [Example 01-3] yielded an IC50 (BRD4_2) of 1 to 10 µM and an IC50 [1] of over 10 µM.
CC1=C(Nc2ccc(C(=O)N(C)c3ccccc3)cc2)CCC1=O [Example 03-2] was tested, and the IC50 (BRD4_2) was over 10 µM and the IC50 [1] was over 10 µM.
For CC1=C(Nc2cc(C(=O)Nc3cc(C(=O)O)ccc3C)ccc2Cl)CCCC1=O [Example 04-96, 3-(4-Chloro-3-((2-methyl-3-oxocyclohex-1-en-1-yl)amino)benzamido)-4-methylbenzoic acid], the IC50 (BRD4_2) was over 10 µM and the IC50 [1] was 1 to 10 µM.
In the case of CC1=C(N[C@H]2CC[C@@H](C(=O)Nc3ccc(C)cc3)CC2)CCC1=O [Example 04-40], the IC50 (BRD4_2) is reported as over 10 µM and the IC50 [1] is reported as over 10 µM.
CC1=C(N[C@H]2CC[C@H](C(=O)Nc3ccccc3C)CC2)CCC1=O [Example 04-30, (1R,4R)-4-((2-methyl-3-oxocyclopent-1-en-1-yl)amino)-N-(o-tolyl)cyclohexanecarboxamide] gave an IC50 (BRD4_2) of over 10 µM and an IC50 [1] of over 10 µM.
With CC1=C(Nc2ccc(C(=O)Nc3cccc(C)c3)cc2)CCC1=O [Example 03-9] the IC50 (BRD4_2) was 1 to 10 µM and the IC50 [1] was 1 to 10 µM.
For CC1=C(Nc2ccccc2C(=O)O)CCC1=O [Examples 02-4], the IC50 (BRD4_2) was over 10 µM and the IC50 [1] was over 10 µM.
COc1ccc(NC(=O)c2ccc(NC3=C(C)C(=O)CC3)cc2Cl)cc1 [Example 04-48, 2-chloro-N-(4-methoxyphenyl)-4-((2-methyl-3-oxocyclopent-1-en-1-yl)amino)-benzamide] showed an IC50 (BRD4_2) of 1 to 10 µM and an IC50 [1] of 1 to 10 µM.
CC1=C(Nc2ccc(C(=O)NC3CCCCC3)c(Cl)c2)CCC1=O [Example 04-43, 2-chloro-N-cyclohexyl-4-((2-methyl-3-oxocyclopent-1-en-1-yl)amino)benzamide] showed an IC50 (BRD4_2) of over 10 µM and an IC50 [1] of over 10 µM.
For CC1=C(Nc2ccc(C(=O)Nc3cccc(C)c3)cc2C)CCC1=O [Example 04-85, 3-methyl-4-((2-methyl-3-oxocyclopent-1-en-1-yl)amino)-N-(m-tolyl)benzamide], the IC50 (BRD4_2) was 1 to 10 µM and the IC50 [1] was 1 to 10 µM.
Molecule COc1ccc(NC(=O)c2ccc(NC3=C(C)C(=O)CC3)c(Br)c2)cc1 [Example 05-18, 3-bromo-N-(4-methoxyphenyl)-4-((2-methyl-3-oxocyclopent-1-en-1-yl)amino)benzamide] has an IC50 (BRD4_2) of 1 to 10 µM and an IC50 [1] of under 1 µM.
In the case of COc1cc(C(=O)Nc2cccc3ccccc23)ccc1NC1=C(C)C(=O)CC1 [Example 04-55, 3-methoxy-4-((2-methyl-3-oxocyclopent-1-en-1-yl)amino)-N-(naphthalen-1-yl)-benzamide], the IC50 (BRD4_2) is reported as 1 to 10 µM and the IC50 [1] is reported as 1 to 10 µM.
Molecule CC1=C(Nc2cccc(C(=O)Nc3ccc(C)cc3)c2)CCC1=O [Example 04-7] has an IC50 (BRD4_2) of over 10 µM and an IC50 [1] of 1 to 10 µM.
With CC1=C(N[C@H]2CC[C@H](C(=O)Nc3ccccc3)CC2)CCC1=O [Example 04-26, (1R,4R)-4-((2-methyl-3-oxocyclopent-1-en-1-yl)amino)-N-phenylcyclohexane-carboxamide] the IC50 (BRD4_2) was over 10 µM and the IC50 [1] was over 10 µM.
CC1=C(Nc2cccc(NC(=O)/C=C\C(=O)O)c2Cl)CCCC1=O [Example 05-85, (Z)-4-((2-chloro-3-((2-methyl-3-oxocyclohex-1-en-1-yl)amino)phenyl)-amino)-4-oxobut-2-enoic acid] was tested, and the IC50 (BRD4_2) was over 10 µM and the IC50 [1] was under 1 µM.
Work on CNC(=O)c1ccc(NC2=C(C)C(=O)CC2)c(OC)c1 [Example 04-53, 3-methoxy-N-methyl-4-((2-methyl-3-oxocyclopent-1-en-1-yl)amino)benzamide] yielded an IC50 (BRD4_2) of 1 to 10 µM and an IC50 [1] of 1 to 10 µM.
COC(=O)c1ccc(Br)c(NC2=C(C)C(=O)CCC2)c1 [Examples 02-9] gave an IC50 (BRD4_2) of over 10 µM and an IC50 [1] of over 10 µM.
Work on CC1=C(Nc2cccc(NS(=O)(=O)C3CCCCC3)c2Cl)CCCC1=O [Example 05-71, N-(2-chloro-3-((2-methyl-3-oxocyclohex-1-en-1-yl)amino)phenyl)-cyclohexanesulfonamide] yielded an IC50 (BRD4_2) of 1 to 10 µM and an IC50 [1] of under 1 µM.
Molecule COc1cc(NC2=C(C)C(=O)CC2)ccc1C(=O)Nc1ccccc1 [Example 04-68, 2-methoxy-4-((2-methyl-3-oxocyclopent-1-en-1-yl)amino)-N-phenylbenzamide] has an IC50 (BRD4_2) of 1 to 10 µM and an IC50 [1] of 1 to 10 µM.
With NC(=O)c1ccc(NC2=CC(=O)CC2)cc1 [Example 01-2] the IC50 (BRD4_2) was 1 to 10 µM and the IC50 [1] was 1 to 10 µM.
For COc1ccc(NC(=O)c2ccc(Cl)c(NC3=C(C#N)C(=O)CCC3)c2)c(C)c1 [Example 05-36, 4-chloro-3-((2-cyano-3-oxocyclohex-1-en-1-yl)amino)-N-(4-methoxy-2-methylphenyl)benzamide], the IC50 (BRD4_2) was over 10 µM and the IC50 [1] was over 10 µM.
Molecule COc1cccc(NC(=O)c2ccc(NC3=C(C)C(=O)CC3)c(Cl)c2)c1 [Example 04-18, 3-chloro-N-(3-methoxyphenyl)-4-((2-methyl-3-oxocyclopent-1-en-1-yl)amino)benzamide] has an IC50 (BRD4_2) of 1 to 10 µM and an IC50 [1] of under 1 µM.
